From patent publication US7429660B2, “ATM inhibitors” (Kudos Pharmaceuticals Limited, priority 2003, dated 2008)

Target: T1, ATM protein immunoprecipitated from HeLa cell nuclear extract (Homo sapiens, UniProt Q13315)
T1 construct: ATM protein was immunoprecipitated from HeLa cell nuclear extract; endogenous in cells; host or cells: HeLa cell nuclear extract (immunoprecipitated with rabbit polyclonal anti-ATM antiserum)
Assay: In vitro ATM inhibition assay (phosphorylation of GSTp53N66 on serine 15, chemiluminescent detection); further: tested normally from 100 µM down to 0.1 nM
Format: biochemical
Details: read-out: IC50 values (the concentration at which 50% of the enzyme activity is inhibited), ATM inhibition
In short: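 Immunoprecipitated HeLa nuclear ATM (C-terminal anti-sera) with GSTp53N66 substrate in Hepes pH 7.4 buffer with MgCl2/MnCl2; inhibitor preincubated 10 min at 37 °C, then Na-ATP added, 1 h at 37 °C.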

T1 sequence (Q13315 whole entry): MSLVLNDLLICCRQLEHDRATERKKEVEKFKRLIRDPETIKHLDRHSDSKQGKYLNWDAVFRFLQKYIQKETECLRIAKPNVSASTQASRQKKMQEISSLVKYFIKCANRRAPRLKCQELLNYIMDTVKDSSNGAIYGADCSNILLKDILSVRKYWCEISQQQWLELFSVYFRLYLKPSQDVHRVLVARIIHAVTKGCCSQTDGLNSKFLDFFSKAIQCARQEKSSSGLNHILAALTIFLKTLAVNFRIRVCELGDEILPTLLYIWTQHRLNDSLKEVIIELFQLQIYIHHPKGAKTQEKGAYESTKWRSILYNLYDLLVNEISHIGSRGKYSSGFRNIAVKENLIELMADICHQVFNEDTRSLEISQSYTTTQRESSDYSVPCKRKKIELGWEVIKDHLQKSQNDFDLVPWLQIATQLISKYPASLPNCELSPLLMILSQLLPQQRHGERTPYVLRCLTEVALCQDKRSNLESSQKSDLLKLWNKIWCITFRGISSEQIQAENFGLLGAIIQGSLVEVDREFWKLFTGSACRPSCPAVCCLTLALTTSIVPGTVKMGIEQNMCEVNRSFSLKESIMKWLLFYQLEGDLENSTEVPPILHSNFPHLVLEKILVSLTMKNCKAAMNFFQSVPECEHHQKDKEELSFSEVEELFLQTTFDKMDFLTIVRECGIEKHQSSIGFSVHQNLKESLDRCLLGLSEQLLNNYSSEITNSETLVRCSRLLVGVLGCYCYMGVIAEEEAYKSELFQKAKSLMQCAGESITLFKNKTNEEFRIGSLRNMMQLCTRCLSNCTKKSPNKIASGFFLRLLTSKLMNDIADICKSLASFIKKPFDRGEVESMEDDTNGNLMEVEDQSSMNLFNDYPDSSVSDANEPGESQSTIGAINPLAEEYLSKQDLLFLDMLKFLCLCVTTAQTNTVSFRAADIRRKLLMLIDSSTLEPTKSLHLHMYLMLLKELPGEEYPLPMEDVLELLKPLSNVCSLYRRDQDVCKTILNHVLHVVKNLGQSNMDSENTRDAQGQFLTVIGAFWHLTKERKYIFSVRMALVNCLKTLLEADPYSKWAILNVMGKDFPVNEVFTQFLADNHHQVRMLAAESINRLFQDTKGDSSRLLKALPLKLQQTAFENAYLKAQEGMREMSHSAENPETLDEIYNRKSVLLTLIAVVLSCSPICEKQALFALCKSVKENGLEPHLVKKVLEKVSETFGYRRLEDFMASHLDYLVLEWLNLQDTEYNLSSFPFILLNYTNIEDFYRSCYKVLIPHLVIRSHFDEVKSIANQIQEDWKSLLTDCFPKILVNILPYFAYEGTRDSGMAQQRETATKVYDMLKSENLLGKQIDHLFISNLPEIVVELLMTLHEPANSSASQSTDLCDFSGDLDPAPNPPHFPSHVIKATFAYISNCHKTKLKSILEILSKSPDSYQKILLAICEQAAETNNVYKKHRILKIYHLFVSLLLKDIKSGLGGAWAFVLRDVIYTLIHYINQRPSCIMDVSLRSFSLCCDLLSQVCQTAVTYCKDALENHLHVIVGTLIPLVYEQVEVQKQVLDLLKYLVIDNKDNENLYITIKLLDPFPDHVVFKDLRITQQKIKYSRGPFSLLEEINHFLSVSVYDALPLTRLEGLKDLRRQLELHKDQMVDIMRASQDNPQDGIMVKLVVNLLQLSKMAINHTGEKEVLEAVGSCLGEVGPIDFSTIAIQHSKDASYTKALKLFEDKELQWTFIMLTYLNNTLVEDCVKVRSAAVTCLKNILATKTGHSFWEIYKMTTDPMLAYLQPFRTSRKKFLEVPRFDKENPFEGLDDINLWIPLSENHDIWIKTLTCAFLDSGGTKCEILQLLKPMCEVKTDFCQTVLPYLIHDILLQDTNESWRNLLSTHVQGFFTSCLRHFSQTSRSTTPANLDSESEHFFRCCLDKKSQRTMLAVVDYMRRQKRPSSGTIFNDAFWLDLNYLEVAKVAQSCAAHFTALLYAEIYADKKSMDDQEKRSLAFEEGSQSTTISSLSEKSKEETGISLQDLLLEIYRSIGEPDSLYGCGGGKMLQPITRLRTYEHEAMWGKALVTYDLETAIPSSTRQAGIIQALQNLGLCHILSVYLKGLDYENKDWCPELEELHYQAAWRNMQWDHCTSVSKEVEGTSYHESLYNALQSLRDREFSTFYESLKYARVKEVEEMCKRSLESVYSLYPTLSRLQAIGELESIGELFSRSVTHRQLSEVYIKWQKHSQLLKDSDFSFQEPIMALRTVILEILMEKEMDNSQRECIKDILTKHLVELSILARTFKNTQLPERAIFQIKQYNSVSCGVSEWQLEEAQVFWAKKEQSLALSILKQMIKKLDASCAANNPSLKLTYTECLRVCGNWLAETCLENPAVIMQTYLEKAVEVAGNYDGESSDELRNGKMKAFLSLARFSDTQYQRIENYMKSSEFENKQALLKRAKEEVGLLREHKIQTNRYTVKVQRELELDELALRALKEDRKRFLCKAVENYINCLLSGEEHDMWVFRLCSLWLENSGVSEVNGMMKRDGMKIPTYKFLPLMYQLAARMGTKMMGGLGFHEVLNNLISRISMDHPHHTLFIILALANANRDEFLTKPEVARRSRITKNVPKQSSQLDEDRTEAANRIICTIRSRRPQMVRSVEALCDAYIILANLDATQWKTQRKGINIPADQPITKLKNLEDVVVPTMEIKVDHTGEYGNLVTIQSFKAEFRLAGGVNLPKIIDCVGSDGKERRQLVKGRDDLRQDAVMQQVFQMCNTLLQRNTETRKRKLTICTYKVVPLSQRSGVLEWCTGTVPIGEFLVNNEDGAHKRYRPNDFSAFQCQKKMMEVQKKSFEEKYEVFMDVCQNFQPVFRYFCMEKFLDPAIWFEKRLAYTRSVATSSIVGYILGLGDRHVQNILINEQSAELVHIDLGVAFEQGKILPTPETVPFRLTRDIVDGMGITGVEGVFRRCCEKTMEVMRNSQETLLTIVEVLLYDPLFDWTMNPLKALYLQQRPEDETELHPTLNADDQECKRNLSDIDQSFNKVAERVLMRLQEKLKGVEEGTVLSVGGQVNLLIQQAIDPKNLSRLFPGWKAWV

| Compound | IC50 |
| --- | --- |
| CN(CCOc1ccc2c(c1)Sc1cccc(-c3cc(=O)cc(N4CCOCC4)o3)c1S2)CCc1ccccn1 [Compound 398] | < 200 nM |
| O=c1cc(-c2cccc3c2Sc2ccc(OCCN4CCN(c5ccccn5)CC4)cc2S3)oc(N2CCOCC2)c1 [Compound 399] | < 200 nM |
| O=c1cc(-c2cccc3c2Sc2ccc(OCCN4CCOCC4)cc2S3)oc(N2CCOCC2)c1 [Compound 403] | < 200 nM |
| O=C(COc1ccc2c(c1)Sc1cccc(-c3cc(=O)cc(N4CCOCC4)o3)c1S2)NC1CCC1 [Compound 405] | < 200 nM |
| CCCCNC(=O)COc1ccc2c(c1)Sc1cccc(-c3cc(=O)cc(N4CCOCC4)o3)c1S2 [Compound 407] | < 200 nM |
| N#CCNC(=O)COc1ccc2c(c1)Sc1cccc(-c3cc(=O)cc(N4CCOCC4)o3)c1S2 [Compound 409] | < 200 nM |
| O=C(COc1ccc2c(c1)Sc1cccc(-c3cc(=O)cc(N4CCOCC4)o3)c1S2)NC(CO)(CO)CO [Compound 410] | < 200 nM |
| O=C(COc1ccc2c(c1)Sc1cccc(-c3cc(=O)cc(N4CCOCC4)o3)c1S2)NC(CO)CO [Compound 411] | < 200 nM |
| O=C(COc1ccc2c(c1)Sc1cccc(-c3cc(=O)cc(N4CCOCC4)o3)c1S2)N1CCN(C(=O)c2ccco2)CC1 [Compound 414] | < 200 nM |
| NC(=O)C1CCN(C(=O)COc2ccc3c(c2)Sc2cccc(-c4cc(=O)cc(N5CCOCC5)o4)c2S3)CC1 [Compound 416] | < 200 nM |
| O=C(COc1ccc2c(c1)Sc1cccc(-c3cc(=O)cc(N4CCOCC4)o3)c1S2)N1CCSCC1 [Compound 417] | < 200 nM |
| O=C(COc1ccc2c(c1)Sc1cccc(-c3cc(=O)cc(N4CCOCC4)o3)c1S2)N1CCCC(CO)C1 (stereo not drawn) [Compound 418] | < 200 nM |
| O=C(COc1ccc2c(c1)Sc1cccc(-c3cc(=O)cc(N4CCOCC4)o3)c1S2)Nc1cccnc1 [Compound 419] | < 200 nM |
| O=C(COc1ccc2c(c1)Sc1cccc(-c3cc(=O)cc(N4CCOCC4)o3)c1S2)N[C@@H](CO)C(=O)OCc1ccccc1 [Compound 424] | < 200 nM |
| O=C(COc1ccc2c(c1)Sc1cccc(-c3cc(=O)cc(N4CCOCC4)o3)c1S2)N1CCN(c2ccccn2)CC1 [Compound 426] | < 200 nM |
| C[C@@H]1CN(C(=O)COc2ccc3c(c2)Sc2cccc(-c4cc(=O)cc(N5CCOCC5)o4)c2S3)C[C@H](C)O1 [Compound 433] | < 200 nM |
| CN(C)CCN(C)C(=O)COc1ccc2c(c1)Sc1cccc(-c3cc(=O)cc(N4CCOCC4)o3)c1S2 [Compound 434] | < 200 nM |

| Compound | IC50 |
| --- | --- |
| COCCN1CCN(C(=O)COc2ccc3c(c2)Sc2cccc(-c4cc(=O)cc(N5CCOCC5)o4)c2S3)CC1 [Compound 435] | < 200 nM |
| O=C(COc1ccc2c(c1)Sc1cccc(-c3cc(=O)cc(N4CCOCC4)o3)c1S2)N1CCN(CCO)CC1 [Compound 436] | < 200 nM |
| CC(C)N1CCN(C(=O)COc2ccc3c(c2)Sc2cccc(-c4cc(=O)cc(N5CCOCC5)o4)c2S3)CC1 [Compound 437] | < 200 nM |
| CCN1CCN(C(=O)COc2ccc3c(c2)Sc2cccc(-c4cc(=O)cc(N5CCOCC5)o4)c2S3)CC1 [Compound 438] | < 200 nM |
| O=C(COc1ccc2c(c1)Sc1cccc(-c3cc(=O)cc(N4CCOCC4)o3)c1S2)NCc1ccncc1 [Compound 439] | < 200 nM |
| O=C(COc1ccc2c(c1)Sc1cccc(-c3cc(=O)cc(N4CCOCC4)o3)c1S2)N1CCCCC1 [Compound 440] | < 200 nM |
| O=C(COc1ccc2c(c1)Sc1cccc(-c3cc(=O)cc(N4CCOCC4)o3)c1S2)NCCN1CCNC1=O [Compound 441] | < 200 nM |
| CN1CCCN(C(=O)COc2ccc3c(c2)Sc2cccc(-c4cc(=O)cc(N5CCOCC5)o4)c2S3)CC1 [Compound 442] | < 200 nM |
| O=C(COc1ccc2c(c1)Sc1cccc(-c3cc(=O)cc(N4CCOCC4)o3)c1S2)N(CCO)CCO [Compound 444] | < 200 nM |
| COCCN(CCOC)C(=O)COc1ccc2c(c1)Sc1cccc(-c3cc(=O)cc(N4CCOCC4)o3)c1S2 [Compound 445] | < 200 nM |
| O=C(COc1ccc2c(c1)Sc1cccc(-c3cc(=O)cc(N4CCOCC4)o3)c1S2)N1CCCCCC1 [Compound 446] | < 200 nM |
| CN1CCN(C(=O)COc2ccc3c(c2)Sc2cccc(-c4cc(=O)cc(N5CCOCC5)o4)c2S3)CC1 [Compound 450] | < 200 nM |
| O=c1cc(-c2cccc3c2Sc2ccc(S(=O)(=O)NCC(F)(F)F)cc2C3)oc(N2CCOCC2)c1 [Compound 454] | < 200 nM |
| O=c1cc(-c2cccc3c2Sc2ccc(S(=O)(=O)NCC4CCCO4)cc2C3)oc(N2CCOCC2)c1 (stereo not drawn) [Compound 455] | < 200 nM |
| CCCCNS(=O)(=O)c1ccc2c(c1)Cc1cccc(-c3cc(=O)cc(N4CCOCC4)o3)c1S2 [Compound 457] | < 200 nM |
| CCCNS(=O)(=O)c1ccc2c(c1)Cc1cccc(-c3cc(=O)cc(N4CCOCC4)o3)c1S2 [Compound 458] | < 200 nM |
| C=CCNS(=O)(=O)c1ccc2c(c1)Cc1cccc(-c3cc(=O)cc(N4CCOCC4)o3)c1S2 [Compound 462] | < 200 nM |

Next, values leading:

| IC50 | Compound |
| --- | --- |
| < 200 nM | CC(=O)N1CCN(CCC(=O)Nc2ccc3c(c2)Cc2cccc(-c4cc(=O)cc(N5CCOCC5)o4)c2S3)CC1 [Compound 349] |
| < 200 nM | CC(C)N1CCN(CCC(=O)Nc2ccc3c(c2)Cc2cccc(-c4cc(=O)cc(N5CCOCC5)o4)c2S3)CC1 [Compound 351] |
| < 200 nM | CCN1CCN(CCC(=O)Nc2ccc3c(c2)Cc2cccc(-c4cc(=O)cc(N5CCOCC5)o4)c2S3)CC1 [Compound 352] |
| < 200 nM | O=C(CCN1CCN(c2ccccn2)CC1)Nc1ccc2c(c1)Cc1cccc(-c3cc(=O)cc(N4CCOCC4)o3)c1S2 [Compound 353] |
| < 200 nM | O=C(CCN1CCN(c2ccc(F)cc2)CC1)Nc1ccc2c(c1)Cc1cccc(-c3cc(=O)cc(N4CCOCC4)o3)c1S2 [Compound 354] |
| < 200 nM | O=C(CCN1CCN(c2ncccn2)CC1)Nc1ccc2c(c1)Cc1cccc(-c3cc(=O)cc(N4CCOCC4)o3)c1S2 [Compound 355] |
| < 200 nM | CN(C)CCN1CCN(CCC(=O)Nc2ccc3c(c2)Cc2cccc(-c4cc(=O)cc(N5CCOCC5)o4)c2S3)CC1 [Compound 356] |
| < 200 nM | C[C@@H]1CN(CCOc2ccc3c(c2)Sc2cccc(-c4cc(=O)cc(N5CCOCC5)o4)c2S3)C[C@H](C)O1 [Compound 359] |
| < 200 nM | CN1CCN(CCOc2ccc3c(c2)Sc2cccc(-c4cc(=O)cc(N5CCOCC5)o4)c2S3)CC1 [Compound 361] |
| < 200 nM | O=c1cc(-c2cccc3c2Sc2ccc(OCCNCc4ccncc4)cc2S3)oc(N2CCOCC2)c1 [Compound 366] |
| < 200 nM | O=c1cc(-c2cccc3c2Sc2ccc(OCCNCCO)cc2S3)oc(N2CCOCC2)c1 [Compound 367] |
| < 200 nM | CC(=O)N1CCN(CCOc2ccc3c(c2)Sc2cccc(-c4cc(=O)cc(N5CCOCC5)o4)c2S3)CC1 [Compound 378] |
| < 200 nM | O=c1cc(-c2cccc3c2Sc2ccc(OCCNCC(F)(F)F)cc2S3)oc(N2CCOCC2)c1 [Compound 379] |
| < 200 nM | O=c1cc(-c2cccc3c2Sc2ccc(OCCNCCc4ccccn4)cc2S3)oc(N2CCOCC2)c1 [Compound 381] |
| < 200 nM | CCCCNCCOc1ccc2c(c1)Sc1cccc(-c3cc(=O)cc(N4CCOCC4)o3)c1S2 [Compound 382] |
| < 200 nM | CCCNCCOc1ccc2c(c1)Sc1cccc(-c3cc(=O)cc(N4CCOCC4)o3)c1S2 [Compound 383] |
| < 200 nM | O=C(c1ccco1)N1CCN(CCOc2ccc3c(c2)Sc2cccc(-c4cc(=O)cc(N5CCOCC5)o4)c2S3)CC1 [Compound 395] |
